Reference: patent US20060069132A1, “Azolecarboxamide herbicides” (priority 2004, published 2006)

Key:
wheat cv. Recital = assay: Test I safening of Compound 6 by Harmony Extra Herbicide, pre-/postemergence; format: in vivo, Triticum aestivum
Method: This test evaluated the safening of Compound 6 on barley (Hordeum vulgare L.) cv. ‘Boone’ and wheat (Triticum aestivum L.) cv. ‘Recital’ by Harmony® Extra Herbicide, which comprises 50 wt % thifensulfuron-methyl and 25 wt % tribenuron-methyl. Barley and wheat seeds were planted in pots containing a pasteurized blend of Matapeake soil and sand. For postemergence testing the plants were grown 10 days so the barley seedlings were at the 2-leaf stage and the wheat seedlings were at the 2-3-leaf stage at time of treatment. Preemergence treatments were applied the day after the seeds were planted. Treatments were applied by spraying Compound 6 and/or […] in a non-phytotoxic solvent mixture, using flat fan nozzle and a spray volume of 280 L/ha. The treatments were triply replicated and the results subsequently averaged. The pots were placed on a greenhouse bench using a complete randomized block design except for the first replicate, which was unrandomized. The plants were grown in the greenhouse and watered as needed with a dilute nutrient solution containing 200 ppm of N. Illumination was daylight supplemented by artificial sources to maintain a photoperiod of 14 hours. The temperature was maintained at 23±2° C. during the day and 17±2° C. at night. The effects of the treatments were rated 25 days after preemergence treatment and 15 days after postemergence treatment. The plant response was visually rated in comparison to untreated controls using a scale of 0 to 100, with 0 representing no effect and 100 representing complete plant death.
(§1) Colby's Equation was used to calculate the expected additive herbicidal effect of the mixtures of Compound 6 with Harmony® Extra (i.e. a 2:1 mixture by weight of thifensulfuron-methyl and tribenuron-methyl). Colby's Equation (Colby, S. R. “Calculating Synergistic and Antagonistic Responses of Herbicide Combinations,” Weeds, 15(1), pp 20-22 (1967)) calculates the expected additive effect of herbicidal mixtures, and for two active ingredients is of the form: Pa+b=Pa+Pb−(PaPb/100) wherein • Pa+b is the percentage effect of the mixture expected from additive contribution of the individual components, • Pa is the observed percentage effect of the first active ingredient at the same use rate as in the mixture, and • Pb is the observed percentage effect of the second active ingredient at the same use rate as in the mixture.
The results and additive effects expected from Colby's Equation for the preemergence test are listed in Table I1, and the results and additive effects expected from Colby's Equation for the postemergence test are listed in Table I2.

pigweed (AMARE) = assay: Test J Compounds 2 and 6 alone and in combination with other herbicides, foliage spray; format: in vivo, Amaranthus retroflexus; parameters: key to AMARE Obsd.: 0 = no effect, 100 = complete control; conditions: for AMARE Obsd.: applied alone
Source text: as §1
Seeds of test plants consisting of barnyardgrass (ECHCG; Echinochloa crus-galli (L.) Beauv.), blackgrass (ALOMY; Alopecurus myosuroides Huds.), Surinam grass (BRADC; Urochloa decumbens (Staph) R. D. Webster, previously named Brachiaria decumbens Stapf), cocklebur (XANST, Xanthium strumarium L.), corn (ZEAMD, Zea mays L. cv. ‘Pioneer 33G26’), large crabgrass (DIGSA, Digitaria sanguinalis (L.) Scop.), giant foxtail (SETFA, Setaria faberi Herrm.), lambsquarters (CHEAL, Chenopodium album L.), morningglory (IPOCO, Ipomoea coccinea L.), pigweed (AMARE, Amaranthus retroflexus L.), velvetleaf (ABUTH, Abutilon theophrasti Medik.) wheat (TRZAS, Triticum aestivum L. cv. ‘Recital’) and wild oat (AVEFA, Avena fatua L.) were planted in Redi-Earth® planting medium (Scotts Company, 14111 Scottslawn Road, Marysville, Ohio 43041) comprising spaghnum peat moss and vermiculite. Seeds of small-seeded species were planted about 1 cm deep; larger seeds were planted about 2.5 cm deep. Plants were grown in a greenhouse using supplemental lighting to maintain a photoperiod of about 14 hours; daytime and nighttime temperatures were about 24-30° C. and 22-25° C., respectively. […] Also listed in Table J are the expected effects for the mixtures calculated using Colby's Equation.

littleseed canarygrass = assay: Test F pre-/postemergence herbicide test; format: in vivo, Phalaris minor
Source text: Seeds of plant species selected from annual blugrass (Poa annua L.), blackgrass (Alopecurus myosuroides Huds.), catchweed bedstraw (Gallium aparine L.), common chickweed (Stellaria media (L.) Vill./Cyr.), downy bromegrass (Bromus tectorum L.), green foxtail (Setaria viridis (L.) Beauv.), Italian ryegrass (Lolium multiflorum Lam.), kochia (Kochia scoparia (L.). Schrad.), lambsquarters (Chenopodium album L.), littleseed canarygrass (Phalaris minor Retz.), pigweed (Amaranthus retroflexus L.), Russian thistle (Salsola kali L. ssp. Ruthenica (Iljin) Soo), wild buckwheat (Polygonum convolvulus L.), wild mustard (Sinapis arvensis L.), wild oat (Avena fatua L.), windgrass (Apera spica-venti (L.) Beauv.), winter barley (Hordeum vulgare L.), and wheat (Triticum aestivum L.) were planted and treated preemergence with test chemicals formulated in a non-phytotoxic solvent mixture which included a surfactant.
At the same time, plants selected from these crop and weed species were treated with postemergence applications of some of the test chemicals formulated in the same manner. Plants ranged in height from 2 to 18 cm (1- to 4-leaf stage) for postemergence treatments. Treated plants and controls were maintained in a greenhouse for 12 to 14 days, after which time all species were compared to controls and visually evaluated. Plant response ratings, summarized in Table F, are based on a scale of 0 to 100 where 0 is no effect and 100 is complete control. A dash (-) response means no test result.

| Structure (SMILES) | Wheat Observed effect (wheat cv. Recital; postemergence, Compound 6 16, thifensulfuron-methyl 0, tribenuron-methyl 0 g a.i./ha) | Wheat Observed effect (wheat cv. Recital; postemergence, Compound 6 31, thifensulfuron-methyl 0, tribenuron-methyl 0 g a.i./ha) | Wheat Observed effect (wheat cv. Recital; preemergence, Compound 6 16, thifensulfuron-methyl 0, tribenuron-methyl 0 g a.i./ha) | Wheat Observed effect (wheat cv. Recital; preemergence, Compound 6 31, thifensulfuron-methyl 0, tribenuron-methyl 0 g a.i./ha) | AMARE Obsd. (pigweed (AMARE); 62 g a.i./ha) | AMARE Obsd. (pigweed (AMARE); 125 g a.i./ha) | observed effect of mixture compared with additive effect expected from Colby's Equation (pigweed (AMARE); mixture with atrazine, pigweed, foliage spray, 15 days after treatment) | Plant response rating (0-100), Canarygrass (littleseed canarygrass; Postemergence, 31 g ai/ha) | Plant response rating (0-100), Canarygrass (littleseed canarygrass; Postemergence, 62 g ai/ha) | Plant response rating (0-100), Canarygrass (littleseed canarygrass; Postemergence, 125 g ai/ha) | Plant response rating (0-100), Canarygrass (littleseed canarygrass; Postemergence, 250 g ai/ha) | Plant response rating (0-100), Canarygrass (littleseed canarygrass; Preemergence, 31 g ai/ha) | Plant response rating (0-100), Canarygrass (littleseed canarygrass; Preemergence, 62 g ai/ha) | Plant response rating (0-100), Canarygrass (littleseed canarygrass; Preemergence, 250 g ai/ha) |
| --- | --- | --- | --- | --- | --- | --- | --- | --- | --- | --- | --- | --- | --- | --- |
| CCn1nc(C(C)(C)C)cc1C(=O)Nc1cc(C(=O)N(C)C)ccc1F [Compound 6, N-[5-[(dimethylamino)carbonyl]-2-fluorophenyl]-3-(1,1-dimethylethyl)-1-ethyl-1H-pyrazole-5-carboxamide] | 58 | 65 | 45 | 67 | 28 | 60 | greater than additive | – | – | – | – | – | – | – |
| CCn1nc(C(C)(C)C)cc1C(=O)Nc1cc(C(=O)OC(C)C)c(F)cc1F [Compound 248] | – | – | – | – | – | – | – | 35 | 40 | 40 | 45 | 40 | 45 | 75 |
